Assay results from patent publication US12268671B2, “IL-8 inhibitors for use in the treatment of chemotherapy-induced peripheral neuropathy” (DOMPÉ FARMACEUTICI S.P.A., priority 2016, dated 2025).

What was measured:
Male Wistar rats [1] = assay: Paclitaxel-induced mechanical allodynia (Dynamic Plantar Aesthesiometer); type: in vivo, rat; settings: paclitaxel model
Method: (§1) Male Wistar rats (200-250 g, Harlan Italy) were housed in a room with controlled temperature (22±1° C.), humidity (60±10%) and light (12 h per day); food and water were available ad libitum.
(§2) The rats received: • 1—four once a day intraperitoneal (i.p.) injections of either paclitaxel (Tocris, Italy) (2 mg/kg/day i.p.; cumulative dose of 8 mg/kg i.p.) or vehicle (saline, 1 ml/kg/day i.p.), administered on alternate days (days 0, 2, 4, and 6), as described in Polomano et al, Pain 2001, 94:293-294. Behavioral testing was performed prior to paclitaxel/vehicle administration (day-1), and again on days 5-7-10-14 following paclitaxel/vehicle injection; • or • 2—oxaliplatin (2.4 mg/kg) dissolved in 5% glucose solution which was administered intraperitoneally (i.p.) at a volume of 0.5 mL/rat, for 5 consecutive days every week for 3 weeks, as described in Cavaletti et al., Eur. J. Cancer, 2001 37, 2457-63. Behavioral testing was performed before oxaliplatin/vehicle administration (day-1), and at again on day 3-5-7-10-14-21 day following oxaliplatin/vehicle injection.
(§3) DF2726A (30 mg/kg) (5 mg/1 ml, 0.5 ml/os/rat) was dissolved in 10% SOLUTOL-HS15 and N-methylpyrrolidone (NMP) (SOLUTOL:NMP 2:1 w/v) and 90% PBS 1×, and was administered once a day from day −3 up to day 11 after paclitaxel administration. Anti-allodynic effects were assessed on day 5, 7, 10 and 14 after paclitaxel administration. Control animals received vehicle (10% SOLUTOL-NMP 2:1 w/v and PBS, 5 mg/1 ml; 0.5 m1/os/rat).
(§4) DF1681B was administered by continuous subcutaneous infusion using the ALZET osmotic pumps Model 2ML2 (Charles River). In details, DF1681B (9.37 g) was dissolved in sterile saline (25 ml) at a concentration of 375 mg/ml and vortexed for 10 min. Osmotic pumps were implanted under anesthesia (100 mg/kg ketamine and 10 mg/kg xylazine i.p.) through a surgical incision between the scapulae. Pumps were implanted 3 days before first paclitaxel injection (day-3). Drug delivery was carried out continuously until day +11. Control animals received vehicle (sterile saline).
To assess the development of mechanical allodynia, sensitivity to tactile stimulation was measured using the Dynamic Plantar Aesthesiometer (DPA, Ugo Basile, Italy). Animals were placed in a chamber with a mesh metal floor covered by a plastic dome that enabled the animal to walk freely, but not to jump. The mechanical stimulus were then delivered in the mid-plantar skin of the hind paw. The cut-off was fixed at 50 g. […]
(§5) All data were presented as the mean±SEM. The significance of differences between groups was determined by two-way analyses of variance (ANOVA) followed by Bonferroni post hoc tests for multiple comparisons. […]

Male Wistar rats [2] = assay: Paclitaxel-induced cold allodynia (acetone test); type: in vivo, rat; settings: paclitaxel model
Method: as §1, §2, §3, §4
(§6) Cold sensitivity was measured as the number of foot withdrawal responses after application of acetone to the dorsal surface of the paw (2). A drop of acetone was applied to the dorsal surface of paws with a syringe connected to a thin polyethylene tube while the rats was standing on a metal mesh. […] Cold responses were measured on both paws before (day −1) and, then on 5, 7, 10 and 14 days after paclitaxel/vehicle administration or on days 0, 5, 7, 10, 14 and 21 after oxalipaltin/vehicle administration.
as §5

Male Wistar rats [3] = assay: Oxaliplatin-induced mechanical allodynia (Dynamic Plantar Aesthesiometer); type: in vivo, rat; settings: oxaliplatin model, days 14 and 21
Method: as §1
as §2, with “Behavioral testing was performed before oxaliplatin/vehicle administration (day-1), and at again on day 3-5-7-10-14-21 day following oxaliplatin/vehicle injection.” left out
To assess the development of mechanical allodynia, sensitivity to tactile stimulation was measured using the Dynamic Plantar Aesthesiometer (DPA, Ugo Basile, Italy). […]
as §5

Male Wistar rats [4] = assay: Oxaliplatin-induced cold allodynia (acetone test); type: in vivo, rat; settings: oxaliplatin model
Method: as §1, §2
DF2726A (30 mg/kg/os) was dissolved in PBS and it was administrated, for 24 consecutive days starting 3 days before oxaliplatin administration and continuing for other 21 days after the first administration of oxaliplatin. During this period the compound was given 2 h after oxaliplatin treatment. Since DF2726A is a sodium salt it was dissolved at the concentration of 16 mg/ml, to reach the active drug dose of 30 mg/kg.
DF1681B was administered by continuous subcutaneous infusion using the ALZET osmotic pumps Model 2ML2 (Charles River). In order to obtain a rate of infusion of 8 mg/hr/kg as described by Cavalieri et al Int J Immunopathol Pharmacol, 2005, 18:475-86, DF1681B (9.37 g) was dissolved in sterile saline (25 ml) at a concentration of 375 mg/ml and vortexed for 10 min. Osmotic pumps were implanted under anesthesia (100 mg/kg ketamine and 10 mg/kg xylazine i.p.). Pumps were prepared according to Alzet instructions sheet. Briefly, pumps were filled with 2 ml of DF1681B solution or vehicle using sterile syringe. Finally, pumps were kept in water bath overnight in stove at 37° C. […]
as §6, with “(2).” for “(2). A drop of acetone was applied to the dorsal surface of paws with a syringe connected to a thin polyethylene tube while the rats was standing on a metal mesh.”
as §5

F-11 cell line = assay: Paclitaxel-induced cytoskeleton modifications, immunofluorescence in differentiated F11 neurons; type: cell-based, mouse/rat; settings: 24 hours
Method: In this study, the effects of paclitaxel, administered alone or in combination with reparixin (DF1681Y; R-(−)-2-(4-isobutylphenyl)propionyl methanesulfonamide) dissolved in aqueous solution of lysine to form the in situ salt, on the cytoskeleton components and organization was performed. As experimental model, a F-11 cell line, a fusion product of mouse neuroblastoma cell line N18TG-2 cells with embryonic rat dorsal root ganglia sensory neurons, was used. These cells were selected because of the presence of neuronal markers and properties that are unique to the parental rat sensory neurons.
F11 (ECACC, Salisbury, UK) cells were cultivated DMEM (Euroclone, MI, Italy) medium supplemented with 10% FBS, USA origin, (Sigma-Aldrich St. Louis, CO, USA), 1% penicillin/streptomycin (Euroclone) and 1% glutamine (Euroclone). After, cells were differentiated with mouse NGF (mNGF) dissolved in DMEM with 1% penicillin/streptomycin and 1% glutamine (FBS free) at the final concentration 50 ng/ml. Medium was replaced every 3 days until complete differentiation, occurred after 7 days. Neurons were not treated (controls) or treated for 24 hours with reparixin [10 μM final concentration], paclitaxel (Sigma-Aldrich) [10 nM final concentration] and the combination of the two molecules.
Cells were fixed in paraformaldehyde 4% in PBS for 20 min at RT and permeabilized in methanol for 5 min at −20° C. Cells were then blocked with PBS containing 4% BSA for 30 min and incubated with primary antibodies diluted in the blocking solution overnight at 4° C.: rabbit β-tubulin (Abcam, Cambridge, UK) 1:500; mouse α-tubulin (Abcam) 1:200 and mouse α-tubulin acetylated (Abcam) 1:1000. Cells were then rinsed in PBS several times before incubation with secondary antibodies, goat anti rabbit conjugated with Alexafluor 633 (1:2000), and goat anti mouse conjugated with Alexafluor 488 (1:2000), (Life Technologies, CA, USA) for 30 min at RT. After extensive washing coverslips were mounted with Vectashield mounting medium with DAPI (Vector Laboratories Burlingame, CA, USA) and then observed at confocal laser microscope.

[5] = DF1681B continuous subcutaneous infusion from day -3 to day +11, day 14
[6] = DF2726A 30 mg/kg os once a day from day -3 to day 11, day 14 (after end of treatment)
[7] = DF2726A 30 mg/kg os once a day from day -3 to day 11, days 5 (P<0.05), 7 (P<0.001), 10 (P<0.001)
[8] = reparixin 10 μM in combination with paclitaxel 10 nM

## CC(C)Cc1ccc([C@@H](C)C(=O)NS(C)(=O)=O)cc1 [DF1681B, R(−)-2-(4-isobutylphenyl)propionyl methansulfonamide]
Male Wistar rats [1]; DF1681B continuous subcutaneous infusion by osmotic pump from day -3 to day +11, days 5 (P<0.01), 7 (P<0.001), 10 (P<0.001)
  mechanical allodynia (paw withdrawal threshold) vs animals treated with vehicle: significant reduction of mechanical allodynia
Male Wistar rats [1]; [5]
  mechanical allodynia (paw withdrawal threshold) vs animals treated with vehicle: No additional antiallodynic effect
Male Wistar rats [2]; [5]
  cold allodynia (number of paw withdrawals) vs animals treated with vehicle: No additional antiallodynic effect
Male Wistar rats [2]; DF1681B continuous subcutaneous infusion from day -3 to day +11, days 5 (P<0.01), 7 (P<0.001), 10 (P<0.001)
  cold allodynia (number of paw withdrawals) vs animals treated with vehicle: significant reduction of cold allodynia
Male Wistar rats [3]; DF1681B continuous subcutaneous infusion 8 mg/hr/kg from day -3
  mechanical allodynia (paw withdrawal threshold): significant antiallodynic effect
Male Wistar rats [4]; DF1681B continuous subcutaneous infusion 8 mg/hr/kg from day -3, day 3
  cold allodynia (number of paw withdrawals): did not show antiallodynic effect
Male Wistar rats [4]; DF1681B continuous subcutaneous infusion 8 mg/hr/kg from day -3, days 5, 7, 10, 14, 21
  cold allodynia (number of paw withdrawals): significant reduction of cold allodynia

## CC(C)(C(=O)[O-])c1ccc(Nc2nc(C(F)(F)F)cs2)cc1.[Na+] [DF2726A, 2-methyl-2-(4-{[4-(trifluoromethyl)-1,3-thiazol-2-yl]amino}phenyl)propanoic acid sodium salt]
Male Wistar rats [1]; [6]
  mechanical allodynia (paw withdrawal threshold) vs animals treated with vehicle: No additional significant antiallodynic effect
Male Wistar rats [1]; [7]
  mechanical allodynia (paw withdrawal threshold) vs animals treated with vehicle: significant reduction of mechanical allodynia
Male Wistar rats [2]; [6]
  cold allodynia (number of paw withdrawals) vs animals treated with vehicle: No additional antiallodynic effect
Male Wistar rats [2]; [7]
  cold allodynia (number of paw withdrawals) vs animals treated with vehicle: significant reduction of cold allodynia
Male Wistar rats [3]; DF2726A 30 mg/kg/os for 24 consecutive days from day -3
  mechanical allodynia (paw withdrawal threshold): significant antiallodynic effect
Male Wistar rats [4]; DF2726A 30 mg/kg/os for 24 consecutive days from day -3, day 3
  cold allodynia (number of paw withdrawals): did not show antiallodynic effect
Male Wistar rats [4]; DF2726A 30 mg/kg/os for 24 consecutive days from day -3, days 5, 7, 10, 14, 21
  cold allodynia (number of paw withdrawals): significant reduction of cold allodynia

## CC(=O)O[C@H]1C(=O)[C@@]2(C)[C@H]([C@H](OC(=O)c3ccccc3)[C@]3(O)C[C@H](OC(=O)[C@H](O)[C@@H](NC(=O)c4ccccc4)c4ccccc4)C(C)=C1C3(C)C)[C@]1(OC(C)=O)CO[C@@H]1C[C@@H]2O [paclitaxel, reference compound]
F-11 cell line; paclitaxel 10 nM alone
  acetylated α-tubulin (marker of stable microtubules), immunofluorescence: increased acetylated α-tubulin
  fluorescence intensity of β-tubulin: decrease of the fluorescence intensity of β-tubulin
  neurite diameter: increase of neurite diameter

## CC(C)Cc1ccc([C@@H](C)C(=O)NS(C)(=O)=O)cc1 [reparixin, R-(−)-2-(4-isobutylphenyl)propionyl methanesulfonamide]
F-11 cell line; [8]
  acetylated α-tubulin (marker of stable microtubules), immunofluorescence: acetylated α-tubulin appears similar to the control
  increased neurite thickness induced by paclitaxel treatment: able to abolish
  α-tubulin and β-tubulin immunofluorescence (dimer formation): able to counteract the effect of paclitaxel alone on dimer formation
